Values of other authors in patent US10105372B2, “Methods of treating obesity using antioxidant inflammation modulators” (REATA PHARMACEUTICALS, INC., priority 2010, dated 2018).

Conditions: monkey, in vivo, po; cited from earlier work

COC(=O)[C@]12CCC(C)(C)C[C@H]1[C@H]1C(=O)C=C3[C@@]4(C)C=C(C#N)C(=O)C(C)(C)[C@@H]4CC[C@@]3(C)[C@]1(C)CC2 [Form B, CDDO-Me]
bioavailability: higher than that of Form A
